Test results reported in US7291612B2, “Immunomodulatory compounds” (Active Biotech A.B., priority 2002, dated 2007).
pEC50: −log10 of the molar value. Where a name gives a salt, the structure may show the parent alone.

The compounds below were run against T1, CD80-CD28 interaction (Homo sapiens, UniProt P33681) (assay: cell free Homogenous Time Resolved Fluorescence (HTRF) assay, inhibition of the CD80-CD28 interaction). Details: 4 hours at room temperature, read-out: Activity (EC50 in summary form).
T1 construct: mouse Fab fragment (fusion partner)
T1 sequence (P33681 35-242 limits assumed): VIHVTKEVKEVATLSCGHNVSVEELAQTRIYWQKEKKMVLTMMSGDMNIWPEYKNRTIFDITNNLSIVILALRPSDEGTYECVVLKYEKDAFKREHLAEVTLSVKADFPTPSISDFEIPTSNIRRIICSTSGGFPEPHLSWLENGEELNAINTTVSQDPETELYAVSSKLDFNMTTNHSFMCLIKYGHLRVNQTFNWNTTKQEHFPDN
Type: binding
Description: The examples described above were tested in a cell free Homogenous Time Resolved Fluorescence (HTRF) assay to determine their activity as inhibitors of the CD80-CD28 interaction.
In the assay, europium and allophycocyanin (APC) are associated with CD28 and CD80 indirectly (through antibody linkers) to form a complex, which brings the europium and APC into close proximity to generate a signal. The complex comprises the following six proteins: fluorescent label 1, linker antibody 1, CD28 fusion protein, CD80 fusion protein, linker antibody 2, and fluorescent label 2. The table below describes these reagents in greater detail.
On formation of the complex, europium and APC are brought into proximity and a signal is generated.
Non-specific interaction was measured by substituting a mouse Fab fragment (C215) for the CD80 mouse Fab fragment fusion protein (1.9 μg/ml). The assay was carried out in black 384 well plates in a final volume of 30 μl. Assay buffer: 50 mM Tris-HCl, 150 mM NaCl pH7.8, containing 0.1% BSA (w/v) added just prior to use.
Compounds were added to the above reagents in a concentration series ranging between 100 μM-1.7 nM. The reaction was incubated for 4 hours at room temperature. Dual measurements were made using a Wallac Victor 1420 Multilabel Counter. First measurement: excitation 340 nm, emission 665 nm, delay 50 μs, window time 200 μs. second measurement: excitation 340 nm, emission 615 nm, delay 50 μs, window time 200 μs. Counts were automatically corrected for fluorescence crossover, quenching and background.

Row | pEC50 | SMILES
1 | < 5.00 | COC(=O)CNC(=O)c1cccc(-n2nc3c4cccc(F)c4[nH]cc-3c2=O)c1 [Example 61]
2 | 5.00 to 6.00 | C#CCNC(=O)c1cccc(-n2nc3c4cccc(F)c4[nH]cc-3c2=O)c1 [Example 62]
3 | 5.00 to 6.00 | CN(Cc1ccccc1)C(=O)c1cccc(-n2nc3c4cccc(F)c4[nH]cc-3c2=O)c1 [Example 63]
4 | < 5.00 | CCOC(=O)C1CCN(C(=O)c2cccc(-n3nc4c5cccc(F)c5[nH]cc-4c3=O)c2)CC1 [Example 64]
5 | > 6.00 | CN(C)CCCNC(=O)c1ccc(-n2nc3c4ccccc4[nH]c(C4CC4)c-3c2=O)cc1 [Example 65, N-(3-Dimethylaminopropyl)-4-(4-cyclopropyl-3-oxo-3,5-dihydro-pyrazolo[4,3-c]quinolin-2-yl]-benzamide]
6 | > 6.00 | CN(C)CCCNC(=O)c1ccc(-n2nc3c4cccc(F)c4[nH]cc-3c2=O)cc1 [Example 66, N-(3-Dimethylaminopropyl)-4-(6-fluoro-3-oxo-3,5-dihydro-pyrazolo[4,3-c]quinolin-2-yl]-benzamide hydrochloride]
7 | 5.00 to 6.00 | O=C(c1ccc(-n2nc3c4cccc(F)c4[nH]cc-3c2=O)cc1)N1CCCCC1 [Example 67]
8 | > 6.00 | O=C(NCc1ccccc1)c1ccc(-n2nc3c4cccc(F)c4[nH]cc-3c2=O)cc1 [Example 68]
9 | 5.00 to 6.00 | CN(Cc1ccccc1)C(=O)c1ccc(-n2nc3c4cccc(F)c4[nH]cc-3c2=O)cc1 [Example 69]
10 | > 6.00 | COCCNC(=O)c1ccc(-n2nc3c4cccc(F)c4[nH]cc-3c2=O)cc1 [Example 70]
11 | > 6.00 | CN(C)CCNC(=O)c1ccc(-n2nc3c4cccc(F)c4[nH]cc-3c2=O)cc1 [Example 71]
12 | > 6.00 | COC(=O)CNC(=O)c1ccc(-n2nc3c4cccc(F)c4[nH]cc-3c2=O)cc1 [Example 72]
13 | > 6.00 | COCCCNC(=O)c1ccc(-n2nc3c4cccc(F)c4[nH]cc-3c2=O)cc1 [Example 73]
14 | 5.00 to 6.00 | O=C(NCCC1=CCCCC1)c1ccc(-n2nc3c4cccc(F)c4[nH]cc-3c2=O)cc1 [Example 75]
15 | 5.00 to 6.00 | O=C(NCC1CCCCC1)c1ccc(-n2nc3c4cccc(F)c4[nH]cc-3c2=O)cc1 [Example 76]
16 | > 6.00 | CCNC(=O)c1ccc(-n2nc3c4cccc(F)c4[nH]cc-3c2=O)cc1 [Example 77]
17 | 5.00 to 6.00 | CCN(CC)C(=O)c1ccc(-n2nc3c4cccc(F)c4[nH]cc-3c2=O)cc1 [Example 78]
18 | > 6.00 | N[C@H]1CC[C@H](NC(=O)c2ccc(-n3nc4c5cccc(F)c5[nH]cc-4c3=O)cc2)CC1 [Example 79]
19 | > 6.00 | CN(C)CCCN(C)C(=O)c1ccc(-n2nc3c4cccc(F)c4[nH]cc-3c2=O)cc1 [Example 80]
20 | > 6.00 | CN(C)CCCCNC(=O)c1ccc(-n2nc3c4cccc(F)c4[nH]cc-3c2=O)cc1 [Example 81]
21 | > 6.00 | O=C(NCCCCN1CCCC1)c1ccc(-n2nc3c4cccc(F)c4[nH]cc-3c2=O)cc1 [Example 82]
22 | > 6.00 | O=C(NCCCN1CCCC1)c1ccc(-n2nc3c4cccc(F)c4[nH]cc-3c2=O)cc1 [Example 83]
23 | > 6.00 | O=C(NCCN1CCN(Cc2ccccc2)CC1)c1ccc(-n2nc3c4cccc(F)c4[nH]cc-3c2=O)cc1 [Example 84]
24 | > 6.00 | CN(C)CCCNC(=O)c1ccc(-n2nc3c4ccccc4[nH]cc-3c2=O)cc1 [Example 86]
25 | 5.00 to 6.00 | CCN(CC)CCCCNC(=O)c1ccc(-n2nc3c4ccccc4[nH]cc-3c2=O)cc1 [Example 88]
26 | 5.00 to 6.00 | CN(C)CCCN(C)C(=O)c1ccc(-n2nc3c4ccccc4[nH]cc-3c2=O)cc1 [Example 89]
27 | 5.00 to 6.00 | CN(C)CCCNC(=O)c1ccc(-n2nc3c4cccc(F)c4[nH]cc-3c2=O)cc1Cl [Example 90]

Row | pEC50 | SMILES
28 | 5.00 to 6.00 | O=C(NCCCN1CCCC1)c1ccc(-n2nc3c4ccccc4[nH]cc-3c2=O)cc1 [Example 91]
29 | 5.00 to 6.00 | O=C(NCCCN1CCN(Cc2c(F)cccc2Cl)CC1)c1ccc(-n2nc3c4ccccc4[nH]cc-3c2=O)cc1 [Example 92]
30 | 5.00 to 6.00 | CN1CCN(CCCNC(=O)c2ccc(-n3nc4c5ccccc5[nH]cc-4c3=O)cc2)CC1 [Example 93]
31 | 5.00 to 6.00 | O=C(NCCN1CCN(Cc2ccccc2)CC1)c1ccc(-n2nc3c4ccccc4[nH]cc-3c2=O)cc1 [Example 94]
32 | > 6.00 | O=C(NCCCN1CCN(Cc2c(F)cccc2Cl)CC1)c1ccc(-n2nc3c4cccc(F)c4[nH]cc-3c2=O)cc1 [Example 95]
33 | > 6.00 | CCN(CC)CCCC(C)NC(=O)c1ccc(-n2nc3c4cccc(F)c4[nH]cc-3c2=O)cc1 (stereo not shown) [Example 97]
34 | > 6.00 | CN1CCN(CCCNC(=O)c2ccc(-n3nc4c5cccc(F)c5[nH]cc-4c3=O)cc2)CC1 [Example 98]
35 | 5.00 to 6.00 | O=C(NCCCCN1CCCC1)c1ccc(-n2nc3c4cccc(F)c4[nH]cc-3c2=O)c(Cl)c1 [Example 99]
36 | 5.00 to 6.00 | CN1CCN(CCCNC(=O)c2ccc(-n3nc4c5cccc(F)c5[nH]cc-4c3=O)cc2Cl)CC1 [Example 100]
37 | 5.00 to 6.00 | CCN(CC)CCCCNC(=O)c1ccc(-n2nc3c4cccc(F)c4[nH]cc-3c2=O)cc1Cl [Example 102]
38 | 5.00 to 6.00 | CN(C)CCCNC(=O)c1ccc(-n2nc3c4cccc(F)c4[nH]cc-3c2=O)c(Cl)c1 [Example 103]
39 | > 6.00 | O=C(NCCCCN1CCCC1)c1ccc(-n2nc3c4ccccc4[nH]c(C4CC4)c-3c2=O)cc1 [Example 104]
40 | < 5.00 | O=C(c1ccc(-n2nc3c4cccc(F)c4[nH]cc-3c2=O)cc1)N1CCN(Cc2ccc(Cl)cc2)CC1 [Example 105]
41 | > 6.00 | CN(CCCNC(=O)c1ccc(-n2nc3c4cccc(F)c4[nH]cc-3c2=O)cc1)c1ccccc1 [Example 106]
42 | 5.00 to 6.00 | CC1CCCCN1CCCNC(=O)c1ccc(-n2nc3c4cccc(F)c4[nH]cc-3c2=O)cc1Cl (stereo not shown) [Example 108]
43 | > 6.00 | CN(C)c1ccc(CNC(=O)c2ccc(-n3nc4c5cccc(F)c5[nH]cc-4c3=O)cc2)cc1 [Example 109]
44 | 5.00 to 6.00 | CN(C)CCCCNC(=O)c1ccc(-n2nc3c4cccc(F)c4[nH]cc-3c2=O)cc1Cl [Example 110]
45 | 5.00 to 6.00 | CN1CCN(C(=O)c2ccc(-n3nc4c5cccc(F)c5[nH]cc-4c3=O)cc2)CC1 [Example 111]
46 | > 6.00 | CC1CCCCN1CCCNC(=O)c1ccc(-n2nc3c4cccc(F)c4[nH]cc-3c2=O)cc1 (stereo not shown) [Example 112]
47 | > 6.00 | O=C(NCCN1CCOCC1)c1ccc(-n2nc3c4cccc(F)c4[nH]cc-3c2=O)cc1 [Example 113]
48 | > 6.00 | CCN1CCCC1CNC(=O)c1ccc(-n2nc3c4cccc(F)c4[nH]cc-3c2=O)cc1 (stereo not shown) [Example 114]
49 | > 6.00 | CN1C(C)(C)CC(NC(=O)c2ccc(-n3nc4c5cccc(F)c5[nH]cc-4c3=O)cc2)CC1(C)C [Example 115]
50 | > 6.00 | O=C(NC1CCN(Cc2ccccc2)CC1)c1ccc(-n2nc3c4cccc(F)c4[nH]cc-3c2=O)cc1 [Example 116]
51 | > 6.00 | CN(C)CC(C)(C)CNC(=O)c1ccc(-n2nc3c4cccc(F)c4[nH]cc-3c2=O)cc1 [Example 117]
52 | > 6.00 | CC1(C)CC(NC(=O)c2ccc(-n3nc4c5cccc(F)c5[nH]cc-4c3=O)cc2)CC(C)(C)N1 [Example 118]
53 | 5.00 to 6.00 | O=C(NCCc1cccnc1)c1ccc(-n2nc3c4cccc(F)c4[nH]cc-3c2=O)cc1 [Example 119]
54 | > 6.00 | CCSCCNC(=O)c1ccc(-n2nc3c4cccc(F)c4[nH]cc-3c2=O)cc1 [Example 120]

Same assay, conditions: read-out: EC50

Row | pEC50 | SMILES
55 | 7.05 | O=C(NCCCN1CCCC1)c1ccc(-n2nc3c4cccc(F)c4[nH]cc-3c2=O)cc1 [Example 83]
